Test results reported in ChEMBL document CHEMBL2375302, “Synthesis, antimicrobial, antiquorum-sensing, antitumor and cytotoxic activities of new series of fused [1,3,4]thiadiazoles” (Eur J Med Chem, 2013).

How the values were obtained:
DU-145 = test: Growth inhibition of human DU145 cells at 10 uM after 48 hrs by coulter counter analysis relative to control; assay type: functional; conditions: DU-145, 48 h, read-out: GI
[1] = Toxicity against brine shrimp larvae assessed as mortality at 10 ug/mL after 24 hrs by binocular microscopic analysis relative to control; assay type: organism-based; conditions: artemia salina, in vivo
SK-MEL-28 = test: Growth inhibition of human SK-MEL-28 cells at 10 uM after 48 hrs by coulter counter analysis relative to control; assay type: functional; conditions: SK-MEL-28, 48 h, read-out: GI
TK-10 = test: Growth inhibition of human TK10 cells at 10 uM after 48 hrs by coulter counter analysis relative to control; assay type: functional; conditions: TK-10, 48 h, read-out: GI
HCT-15 = test: Growth inhibition of human HCT15 cells at 10 uM after 48 hrs by coulter counter analysis relative to control; assay type: functional; conditions: HCT-15, 48 h, read-out: GI
[2] = Toxicity against brine shrimp larvae assessed as mortality at 100 ug/mL after 24 hrs by binocular microscopic analysis relative to control; assay type: organism-based; conditions: artemia salina, in vivo
CAKI-1 = test: Growth inhibition of human CAKI-1 cells at 10 uM after 48 hrs by coulter counter analysis relative to control; assay type: functional; conditions: CAKI-1, 48 h, read-out: GI
SF-268 = test: Growth inhibition of human SF268 cells at 10 uM after 48 hrs by coulter counter analysis relative to control; assay type: functional; conditions: SF-268, 48 h, read-out: GI
K562 = test: Growth inhibition of human K562 cells at 10 uM after 48 hrs by coulter counter analysis relative to control; assay type: functional; conditions: K562, 48 h, read-out: GI
NCI-H460 = test: Growth inhibition of human NCI-H460 cells at 10 uM after 48 hrs by coulter counter analysis relative to control; assay type: functional; conditions: NCI-H460, 48 h, read-out: GI
SN12C = test: Growth inhibition of human SN12C cells at 10 uM after 48 hrs by coulter counter analysis relative to control; assay type: functional; conditions: read-out: GI
Candida albicans = test: Antifungal activity against Candida albicans at 5 mg/mL after 48 hrs; assay type: functional; conditions: read-out: DIZ
HOP-62 = test: Growth inhibition of human HOP62 cells at 10 uM after 48 hrs by coulter counter analysis relative to control; assay type: functional; conditions: HOP-62, 48 h, read-out: GI
HL-60(TB) = test: Growth inhibition of human HL-60(TB) cells at 10 uM after 48 hrs by coulter counter analysis relative to control; assay type: functional; conditions: HL-60, 48 h, read-out: GI
NCI-H226 = test: Growth inhibition of human NCI-H226 cells at 10 uM after 48 hrs by coulter counter analysis relative to control; assay type: functional; conditions: NCI-H226, 48 h, read-out: GI
RPMI-8226 = test: Growth inhibition of human RPMI8226 cells at 10 uM after 48 hrs by coulter counter analysis relative to control; assay type: functional; conditions: RPMI-8226, 48 h, read-out: GI
IGROV-1 = test: Growth inhibition of human IGROV1 cells at 10 uM after 48 hrs by coulter counter analysis relative to control; assay type: functional; conditions: IGROV-1, 48 h, read-out: GI
SW-620 = test: Growth inhibition of human SW620 cells at 10 uM after 48 hrs by coulter counter analysis relative to control; assay type: functional; conditions: SW-620, 48 h, read-out: GI
MOLT-4 = test: Growth inhibition of human MOLT4 cells at 10 uM after 48 hrs by coulter counter analysis relative to control; assay type: functional; conditions: MOLT-4, 48 h, read-out: GI
COLO 205 = test: Growth inhibition of human COLO205 cells at 10 uM after 48 hrs by coulter counter analysis relative to control; assay type: functional; conditions: COLO 205, 48 h, read-out: GI
[3] = tested on: Chromobacterium violaceum; test: Antiquorum-sensing activity against Chromobacterium violaceum ATCC 12472 after 48 hrs; assay type: functional
NCI-H23 = test: Growth inhibition of human NCI-H23 cells at 10 uM after 48 hrs by coulter counter analysis relative to control; assay type: functional; conditions: NCI-H23, 48 h, read-out: GI
Escherichia coli = test: Antibacterial activity against Escherichia coli at 5 mg/mL after 24 hrs; assay type: functional; conditions: read-out: DIZ
HOP-92 = test: Growth inhibition of human HOP92 cells at 10 uM after 48 hrs by coulter counter analysis relative to control; assay type: functional; conditions: HOP-92, 48 h, read-out: GI
ACHN = test: Growth inhibition of human ACHN cells at 10 uM after 48 hrs by coulter counter analysis relative to control; assay type: functional; conditions: read-out: GI
HCT-116 = test: Growth inhibition of human HCT116 cells at 10 uM after 48 hrs by coulter counter analysis relative to control; assay type: functional; conditions: HCT-116, 48 h, read-out: GI
KM12 = test: Growth inhibition of human KM12 cells at 10 uM after 48 hrs by coulter counter analysis relative to control; assay type: functional; conditions: KM12, 48 h, read-out: GI
OVCAR-4 = test: Growth inhibition of human OVCAR4 cells at 10 uM after 48 hrs by coulter counter analysis relative to control; assay type: functional; conditions: OVCAR-4, 48 h, read-out: GI
SNB-19 = test: Growth inhibition of human SNB19 cells at 10 uM after 48 hrs by coulter counter analysis relative to control; assay type: functional; conditions: SNB-19, 48 h, read-out: GI
SNB-75 = test: Growth inhibition of human SNB75 cells at 10 uM after 48 hrs by coulter counter analysis relative to control; assay type: functional; conditions: SNB-75, 48 h, read-out: GI
A498 = test: Growth inhibition of human A498 cells at 10 uM after 48 hrs by coulter counter analysis relative to control; assay type: functional; conditions: A498, 48 h, read-out: GI
MDA-MB-231 = test: Growth inhibition of human MDA-MB-231 cells at 10 uM after 48 hrs by coulter counter analysis relative to control; assay type: functional; conditions: MDA-MB-231, 48 h, read-out: GI
[4] = Growth inhibition of human NCI-ADR-RES cells at 10 uM after 48 hrs by coulter counter analysis relative to control; assay type: functional; conditions: read-out: GI
SF-295 = test: Growth inhibition of human SF295 cells at 10 uM after 48 hrs by coulter counter analysis relative to control; assay type: functional; conditions: SF-295, 48 h, read-out: GI
Bacillus cereus = test: Antibacterial activity against Bacillus cereus at 5 mg/mL after 24 hrs; assay type: functional; conditions: read-out: DIZ
HT-29 = test: Growth inhibition of human HT-29 cells at 10 uM after 48 hrs by coulter counter analysis relative to control; assay type: functional; conditions: HT-29, 48 h, read-out: GI
SK-OV-3 = test: Growth inhibition of human SKOV3 cells at 10 uM after 48 hrs by coulter counter analysis relative to control; assay type: functional; conditions: SK-OV-3, 48 h, read-out: GI
UO-31 = test: Growth inhibition of human UO31 cells at 10 uM after 48 hrs by coulter counter analysis relative to control; assay type: functional; conditions: UO-31, 48 h, read-out: GI
Aspergillus fumigatus = test: Antifungal activity against Aspergillus fumigatus Af293 at 5 mg/mL after 48 hrs; assay type: functional; conditions: Af293, 48 h, read-out: DIZ

SMILES | inhibition of growth at 10 µM (DU-145) | mortality at 24 h, 10 ug/mL [1] | inhibition of growth at 10 µM (SK-MEL-28) | inhibition of growth at 10 µM (TK-10) | inhibition of growth at 10 µM (HCT-15) | mortality at 24 h, 100 ug/mL [2] | inhibition of growth at 10 µM (CAKI-1) | inhibition of growth at 10 µM (SF-268) | inhibition of growth at 10 µM (K562) | inhibition of growth at 10 µM (NCI-H460) | inhibition of growth at 10 µM (SN12C) | zone of inhibition at 5000 µg/mL (Candida albicans) | inhibition of growth at 10 µM (HOP-62) | inhibition of growth at 10 µM (HL-60(TB)) | inhibition of growth at 10 µM (NCI-H226) | inhibition of growth at 10 µM (RPMI-8226) | inhibition of growth at 10 µM (IGROV-1) | inhibition of growth at 10 µM (SW-620) | inhibition of growth at 10 µM (MOLT-4) | inhibition of growth at 10 µM (COLO 205) | other results
CCOC(=O)C1C(=O)N=C2SC(S(N)(=O)=O)=NN2C1c1ccc(N(C)C)cc1 (configuration not stated) | < 10% | 66.6% | < 10% | < 10% | < 10% | 83.3% | 21.1% | < 10% | < 10% | < 10% | < 10% | 10 mm | < 10% | 21% | < 10% | < 10% | < 10% | < 10% | < 10% | < 10% | diameter of the inhibition zone (DIZ) [3]: <2 mm; inhibition of growth at 10 µM (NCI-H23): < 10%; zone of inhibition at 5000 µg/mL (Escherichia coli): < 2 mm; inhibition of growth at 10 µM (HOP-92): 51.2%; inhibition of growth at 10 µM (ACHN): < 10%; inhibition of growth at 10 µM (HCT-116): < 10%; inhibition of growth at 10 µM (KM12): < 10%; inhibition of growth at 10 µM (OVCAR-4): < 10%; inhibition of growth at 10 µM (SNB-19): < 10%; inhibition of growth at 10 µM (SNB-75): 10.1%; inhibition of growth at 10 µM (A498): 16.5%; inhibition of growth at 10 µM (MDA-MB-231): 34.6%; inhibition of growth at 10 µM [4]: < 10%; inhibition of growth at 10 µM (SF-295): < 10%; zone of inhibition at 5000 µg/mL (Bacillus cereus): 5 mm; inhibition of growth at 10 µM (HT-29): < 10%; inhibition of growth at 10 µM (SK-OV-3): < 10%; inhibition of growth at 10 µM (UO-31): 14.7%; zone of inhibition at 5000 µg/mL (Aspergillus fumigatus): 4 mm
N#Cc1cnc2sc(S(N)(=O)=O)nn2c1=O | < 10% | 50% | < 10% | < 10% | < 10% | 70% | < 10% | < 10% | < 10% | < 10% | < 10% | 4 mm | < 10% | 18.4% | < 10% | < 10% | < 10% | < 10% | < 10% | < 10% | diameter of the inhibition zone (DIZ) [3]: 10 mm; inhibition of growth at 10 µM (NCI-H23): < 10%; zone of inhibition at 5000 µg/mL (Escherichia coli): 5 mm; inhibition of growth at 10 µM (HOP-92): 12.3%; inhibition of growth at 10 µM (ACHN): < 10%; inhibition of growth at 10 µM (HCT-116): < 10%; inhibition of growth at 10 µM (KM12): < 10%; inhibition of growth at 10 µM (OVCAR-4): < 10%; inhibition of growth at 10 µM (SNB-19): < 10%; inhibition of growth at 10 µM (SNB-75): 10.3%; inhibition of growth at 10 µM (A498): 34.2%; inhibition of growth at 10 µM (MDA-MB-231): < 10%; inhibition of growth at 10 µM [4]: < 10%; inhibition of growth at 10 µM (SF-295): < 10%; zone of inhibition at 5000 µg/mL (Bacillus cereus): 2 mm; inhibition of growth at 10 µM (HT-29): < 10%; inhibition of growth at 10 µM (SK-OV-3): < 10%; inhibition of growth at 10 µM (UO-31): 10.5%; zone of inhibition at 5000 µg/mL (Aspergillus fumigatus): < 2 mm
N#Cc1cnc2sc(S(N)(=O)=O)nn2c1=N | < 10% | 73.3% | < 10% | < 10% | < 10% | 80% | 11.5% | < 10% | < 10% | < 10% | < 10% | < 2 mm | 10.7% | 29.3% | < 10% | < 10% | < 10% | < 10% | < 10% | < 10% | diameter of the inhibition zone (DIZ) [3]: 11 mm; inhibition of growth at 10 µM (NCI-H23): < 10%; zone of inhibition at 5000 µg/mL (Escherichia coli): < 2 mm; inhibition of growth at 10 µM (HOP-92): 20.3%; inhibition of growth at 10 µM (ACHN): < 10%; inhibition of growth at 10 µM (HCT-116): < 10%; inhibition of growth at 10 µM (KM12): < 10%; inhibition of growth at 10 µM (OVCAR-4): < 10%; inhibition of growth at 10 µM (SNB-19): < 10%; inhibition of growth at 10 µM (SNB-75): < 10%; inhibition of growth at 10 µM (A498): 14.9%; inhibition of growth at 10 µM (MDA-MB-231): 12%; inhibition of growth at 10 µM [4]: < 10%; inhibition of growth at 10 µM (SF-295): < 10%; zone of inhibition at 5000 µg/mL (Bacillus cereus): < 2 mm; inhibition of growth at 10 µM (HT-29): < 10%; inhibition of growth at 10 µM (SK-OV-3): < 10%; inhibition of growth at 10 µM (UO-31): < 10%; zone of inhibition at 5000 µg/mL (Aspergillus fumigatus): < 2 mm
